Laboratory results from US7709259B2, “Enhancement of mammalian embryo development” (Board of Regents of the University of Texas System, priority 2003, dated 2010).
“Also recorded” adds a separate entry of the source.

How the values were obtained:
[1] = system: human embryos (frozen zygotes); assay: Blastocyst formation study with frozen human zygotes; assay type: cell-based; conditions: Frozen Zygote, 0.1 μM
Method: (§1) With the patients' written instructions, 101 frozen zygotes from 14 couples were used for the blastocyst formation study. The zygotes had been frozen during the period of January, 1993 to November, 2003. After overnight culture, only those embryos that had developed to 2-cell stage were used for further study. For each patient, those 2-cell stage embryos were split into a control pool or an experimental pool. All embryos were cultured in Gobal medium (a modified KSOM medium from IVF online) for 5 days with change medium at 2.5 day. The experimental group was supplemented with 0.1 μM of Iloprost (Cayman Chemical, Ann Arbor, Mich.). The control group was supplemented with vehicle (0.000001% DMSO). Chi-Square test were used to compare the number of blastocyst formed. The quality (size, inner cell mass, trophectoderm) of blastocysts was analyzed by non-parametric Wilcoxon Rank Sum Test. The statistical significance was defined at P<0.05. Another 52 donated frozen blastocysts, from 9 couples, were used for short term study. Forty-five thawed blastocysts were recovered. Those blastocysts were immediately cultured with or without Iloprost. The re-expansion of blastocoel was checked 18 hours later. The analysis of outcome was the same as the analysis for the frozen zygotes study.

[2] = system: monkeys; conditions: Iloprost given throughout the gestation period; cited from earlier work
[3] = system: mouse embryos; assay: Developmental stage of cultured embryos at the time of transfer; assay type: cell-based
Method: (§2) Mouse embryos were harvested and cultured as described above, and subsequently published by the present inventor (Huang et al., 2003). Briefly, two-cell embryos ([…]) were harvested from super-ovulated, three-week old C57B1/6 female mice 42 hours after hCG injection. The embryos (14 per group) were cultured at 37° C. under 5% CO2 in four-well dish (Nalge Nunc International, Naperville, Ill., USA) each containing 600 μl HTF media (SAGE Biopharma, Bedminster, N.J., USA). The experimental embryos received Iloprost (1 μM, Caymen Chemical, Ann Arbor, Mich., USA) in water and the control embryos, an equal amount of water. In either case, the volume of water was less than 0.1% of the culture media.
(§3) Embryo transfer was performed on 2.5 day of pseudopregnancy under a dissecting microscope (Olympus SZ-PT). Surgical anesthesia was obtained through intraperitoneal injection of ketamine (200 mg/Kg) and xylazine (10 mg/Kg) (both from Burns Vet Supply Inc. TX, USA). Each uterine horn was accessed via a 2-cm flank incision. With the proximal oviduct held by a pair of forceps, an opening was created at the distal end of the uterine horn on the anti-mesenteric side with a 30 gauge needle. The opening permits the entry of transfer pipette which has an inner diameter of 135 μm (MidAtlantic Diagnostics, Inc. NJ, USA). Up to seven embryos in 0.8 μl of transfer media (α MEM with 25 mM HEPES and 1% BSA) were transferred to each horn. After each transfer, contents of the pipette were examined under a stereo microscope to identify retained embryos. The flank incision was closed with 9 mm metallic clips (Clay Adams, Parsippany, N.J., USA). To avoid mixing of control and experimental embryos due to embryo migration from one horn to the other (personal communication with Dr. Andreas Zimmer, University of Bonn, Germany), each gestational carrier received either control or experimental embryos. To maintain consistent transfer techniques, the embryo transfer was performed according to the same protocol and by one individual, who was blinded to the treatment the embryos being placed received. To ensure that both groups benefited equally from the experience gained over the course of the study (˜6 months), the embryos were assigned treatments (control or Iloprost) in blocks of four.

[4] = system: mouse embryos; assay: Live birth rate, implantation rate and weights of pups and placentae 14 days after embryo transfer; assay type: in vivo
Method: as §2
The day after the embryo donors received hCG, vaginal smears were obtained from potential gestational carriers (eight week old C3B6F1 female mice) to determine the stage of estrus cycle. Those in estrus were paired with vasectomized ICR males (Harlan) and checked for vaginal plugs on the following morning. Those with plugs were designated to be 0.5 day pseudopregnant.
as §3
In order to count and weigh the pups accurately, we sacrificed gestational carriers 14 days after embryo transfer (16.5 days of pregnancy or two days before natural birth). After euthanasia, the number of live pups was counted and the weight of individual pup and placenta was determined. All pups were examined for gross anomalies. The number of empty gestation sacs was also counted in order to determine the implantation rate. The live birth rate was expressed as the number of live pups per embryo transferred; the implantation rate was expressed as the number of sacs, with or without live pups, per embryo transferred.
The Fisher's exact test was used to compare the rates; the Student's t-test was used to compare the weights. A p<0.05 was considered as statistically significant. The GraphPad Instat® software (GraphPad Software Inc., San Diego, Calif., USA) was used for statistical analysis.

[5] = system: intact mouse embryos (blastocysts); assay: Whole embryo radioligand binding assay (3H-Iloprost); conditions: 0.1 μM 3H-Iloprost, with or without 5 μM unlabeled Iloprost, 116 blastocysts
Method: Analysis of the binding of ^3H-Iloprost to blastocysts was performed as previously described [Arbab, 2002] with slight modification. Two hundred thirty-two hatched and hatching blastocysts were washed three times in binding buffer (10 mM MnCl2 in 10 mM HEPES, pH 7.4) and then transferred to 100 μl of binding buffer with or without unlabeled Iloprost (5 μM). The reaction was started by adding an equal amount of binding buffer containing ^3H-Iloprost (200 nM, specific activity 11.0 Ci/mmol, Amersham Biosciences) and incubating for 60 min at room temperature. The reaction was terminated by transferring the blastocysts to 2 ml of ice-cold wash buffer (0.01% BSA in 10 mM HEPES, pH 7.4). The buffer and the blastocysts were filtered through glass fiber filters (Whatman GF/C 2.4 cm) and the filters were washed three times with 2 ml of wash buffer. The filters were dried in an oven before the radioactivity was determined by scintillation counting with 5 ml of scintillation fluid.

[6] = system: rabbits; conditions: Iloprost given throughout the gestation period; cited from earlier work
[7] = system: rats; conditions: Iloprost given throughout the gestation period; cited from earlier work
[8] = system: human frozen blastocysts; assay: Short term study with thawed frozen human blastocysts; assay type: cell-based
Method: as §1

[9] = system: mouse embryos; assay: Complete hatching of cultured two-cell mouse embryos; assay type: cell-based; conditions: for effect on complete hatching: 0.1 μM
Method: Mice were kept under controlled temperature, humidity, and light cycle (12 hour light/dark cycle) conditions with free access to water and food. Three-week old C57B1/6 female mice were purchased from Harlan (Indianapolis, Ind., USA). Eight-week old C3H male mice were purchased initially from Harlan and later from The Jackson Laboratory (Bar Harbor, Me., USA). Superovulation in the female mice was achieved by intraperitoneal injection of pregnant mare serum gonadotropin (5 IU), followed by human chorionic gonadotropin (hCG, 5 IU) 46 hours later. After receiving hCG, each female mouse was paired with one fertile male mouse. Forty-eight hours later, two-cell embryos were harvested from the oviduct into α-MEM media supplemented with 25 mM HEPES and 1% BSA (Irvine Scientific).
Embryos (17-20 per group) were cultured at 37° C. under 5% CO2 in a four-well dish (Nalge Nunc International, Naperville, Ill., USA) containing 600 μl of medium in each well. The HTF and the α-MEM media were used sequentially during the 96-hour period to meet the changing nutritional requirements of the cleaving embryos [Gardner, 1998]. The HTF medium (SAGE Biopharma) was used during the first 48 hours, and the α-MEM medium (Irvine Scientific), with Earle's Salts and 2 mM glutamine, was used during the second 48 hours. The experimental embryos received Iloprost in water and the control embryos received an equal amount of water. […] After 96-hour culture, each embryo was examined for the presence of the zona pellucida. Embryos completely free of the zona pellucida were counted as having completely hatched. The rate of complete hatching was determined by dividing the number of completely hatched embryos by the total number of embryos. Complete hatching of embryos was chosen as an endpoint instead of blastocyst formation or embryo hatching because the latter two markers are not correlated with establishment of a viable pregnancy [Lane, 1997].
Student's t-test or one-way analysis of variance followed by Dunnett test were used where appropriate. A p<0.05 was considered statistically significant. Construction of dose response curves and calculation of ED50 values (with the Hill slope set at 1.0) were completed with the GraphPad Prism® software (GraphPad Prism Software Inc., San Diego, Calif., USA).

[10] = system: mouse embryos; assay: Implantation rate 72 hours after transfer of cultured embryos to gestational carriers; assay type: in vivo
Method: as §2
The day after the embryo donors received hCG, vaginal smears were obtained from potential gestational carriers (eight week old C3B6F1 female mice) to determine the stage of estrus cycle. […]
Seventy-two hours after embryo transfer, implantation was determined based on a previously described method with some modifications (Paria et al., 1993). […] Discrete blue bands (indicated by *) encircling the uterine horns were counted (FIG. 6A). […] The uterine horns were then opened and the gestation sacs counted (FIG. 6B). The implantation rate was expressed as the number of gestation sacs per embryo transferred. […]

[11] = 1 μM in HTF media, 81 embryos transferred

SMILES: CC#CCC(C)[C@H](O)/C=C/[C@@H]1[C@H]2C/C(=C/CCCC(=O)O)C[C@H]2C[C@H]1O (stereo partly shown) [Iloprost]
- blastocysts formed / embryos ([1]; 5 days culture, control 11/26): (18/26)
- Blastocyst formation rate ([1]; 5 days culture, control 42%): 69%
- ICM (coding A = 3, B = 2, C = 1) ([1]; inner cell mass, control 0.50): 1.42
- Size (score 1-6) ([1]; morula or degenerated = 0, control 1.42): 3.04
- TRO (coding A = 3, B = 2, C = 1) ([1]; trophectoderm, control 0.46): 1.31
- embryonic and fetal development [2]: not affected
- Degenerated (number of embryos at transfer) [3, 11]: 0
- Hatching Blastocyst (number of embryos at transfer) [3, 11]: 2
- Morula (number of embryos at transfer) [3, 11]: 49
- Early Blastocyst (number of embryos at transfer) ([3]; 1 μM, 81 embryos transferred, blastocoele cavity <49% of the embryo): 8
- Late Blastocyst (number of embryos at transfer) ([3]; 1 μM, 81 embryos transferred, blastocoele cavity ≧50% of the embryo): 22
- embryos at the morula stage at the time of transfer ([3]; experimental and control embryos): approximately 70%
- Pup weight (mean ± S.D.) ([4]; 14 days after transfer (16.5 days of pregnancy), control 0.788 ± 0.151): 0.772 ± 0.124 gm
- Total number of live pups ([4]; 14 days after transfer of 415 embryos to 31 carriers, control 115): 149
- Placental weight (mean ± S.D.) ([4]; 14 days after transfer, control 0.166 ± 0.037): 0.166 ± 0.003 gm
- live birth rate (live pups per embryo transferred) ([4]; 14 days after transfer, control 28%): 36%
- implantation rate (sacs with or without live pups per embryo transferred) ([4]; 14 days after transfer, control 46%): 59%
- gross anomalies of pups ([4]; embryos exposed during the pre-implantation period, live pups examined): no gross anomalies; also recorded: no digit reduction or other anomalies
- 3H-Iloprost specifically bound [5]: approximately 3.04 fmol
- embryonic and fetal development [6]: not affected
- embryonic and fetal development [7]: digit reduction
- TRO (coding A = 3, B = 2, C = 1) ([8]; Frozen blastocyst, 18 hours, control 0.68): 0.78
- ICM (coding A = 3, B = 2, C = 1) ([8]; Frozen blastocyst, 18 hours, control 0.72): 0.86
- Size (score 1-6) ([8]; Frozen blastocyst, 18 hours, control 1.45): 1.47
- blastocysts / thawed blastocysts ([8]; Frozen blastocyst, 18 hours, control 11/22): (11/23)
- Blastocyst formate rate ([8]; re-expansion of blastocoel checked 18 hours after thaw, control 50%): 48%
- effect on complete hatching ([9]; exposure 0-72 hours after harvest): same rates of complete hatching as did 0-96 hours exposure
- effect on complete hatching ([9]; exposure 24-42 hours (eight-cell embryos to morulae)): ensured enhanced hatching
- effect on complete hatching ([9]; exposure 24-72 hours after harvest): same rates of complete hatching as did 0-96 hours exposure
- effect on complete hatching ([9]; exposure 42-72 hours (morulae to early blastocysts)): ensured enhanced hatching
- effect on complete hatching ([9]; exposure during the first 24 hours of culture (two-cell to eight-cell)): did not enhance hatching
- rate of complete hatching (mean±S.D.) ([9]; 1 μM, maximum augmentation, 96 hours, n=3, control 49±14%): 81±7%
- concentration at which effects on complete hatching were statistically significant ([9]; 96 hour culture): ≥ 0.1 µM
- EC50 ([9]; Mus musculus, 96 h, two-cell mouse embryos cultured 96 hours with 1 nM to 10 μM, Hill slope set at 1.0, read-out: ED50 for enhancement of complete hatching): 6.7 nM
- Number of gestation sacs ([10]; 72 hours after transfer of 81 embryos cultured with 1 μM, control 35): 62
- implantation rate (gestation sacs per embryo transferred) ([10]; 72 hours after transfer, control 42%): 76%

SMILES: CCCCC[C@H](O)/C=C/[C@H]1[C@H](O)CC(=O)[C@@H]1C/C=C\CCCC(=O)O [PGE2, prostaglandin E2]
- effect on complete hatching of cultured mouse embryos ([9]; preliminary data): enhanced the complete hatching
